Results taken from patent US9963462B2 (priority 2015, dated 2018).

Key:
[1] = tested on: BH4 production in human peripheral blood mononuclear cells (PBMCs); assay: hPBMC assay, inhibition of BH4 production by LC-MS (anti-CD3/anti-CD28 stimulated); assay type: cell-based; conditions: PBMC, read-out: hPBMC IC50
Protocol: hPBMC Assay: PBMCs were either purchased or isolated from fresh human blood and used either as a fresh preparation or frozen for later use. The assay system was prepared by pre-treating the assay plates overnight with a solution containing anti-human CD3 antibody. Human PBMCs were suspended in assay medium and plated into the assay plates at a density of 1-4×10^5 cells per well. The desired concentration of the test compound was added to each well. A solution of human anti-CD28 antibody was also added to each well. Plates were incubated for 12-48 hours at 37° C. and 5% CO2. Assay plates were centrifuged for 5-15 minutes at 1-3000 RMP and supernatants were removed. The cells were lysed, sealed and used directly or frozen at −80° C. LC-MS was used to quantify the amount of inhibition of BH4 production.
PBMCs were either purchased or isolated from fresh human blood and used either as a fresh preparation or frozen for later use. The assay system was prepared by pre-treating the assay plates overnight with a solution containing anti-human CD3 antibody. Human PBMCs were suspended in assay medium and plated into the assay plates at a density of 1-4×10^5 cells per well. The desired concentration of the test compound was added to each well. A solution of human anti-CD28 antibody was also added to each well. Plates are incubated for 12-48 hours at 37° C. and 5% CO2. Assay plates were centrifuged for 5-15 minutes at 1-3000 RMP and supernatants were removed. The cells were lysed, sealed and used directly or frozen at −80° C.

[2] = target: SNAP-hSPR (sepiapterin reductase, SPR) (Homo sapiens, UniProt P35270); assay: biochemical; assay type: binding; conditions: terbium labelled SNAP-hSPR / SSZ labelled SNAP-EGFP; read-out: hTR-FRET IC50
Chain of SNAP-hSPR (sepiapterin reductase, SPR) (P35270 whole entry): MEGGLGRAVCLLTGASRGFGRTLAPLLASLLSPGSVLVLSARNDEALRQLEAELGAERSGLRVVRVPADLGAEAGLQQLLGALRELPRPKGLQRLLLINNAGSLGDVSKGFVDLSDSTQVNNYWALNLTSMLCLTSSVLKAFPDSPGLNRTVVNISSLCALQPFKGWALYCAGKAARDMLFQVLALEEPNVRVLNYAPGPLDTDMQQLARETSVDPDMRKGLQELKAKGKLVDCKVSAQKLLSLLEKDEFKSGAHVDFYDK

[3] = tested on: BH4 levels in SK-N-BE (2) cells; assay: SKN-N-BE (2) cellular assay, BH4 levels by LC-MS; assay type: cell-based; conditions: Homo sapiens, SKNBE2, read-out: SK-N-BE(2) IC50, SK-N-BE (2) cells, BH4 levels by LC-MS

Compound | IC50 [1] | IC50 [2] | IC50 [3]
Cc1c(C(=O)N2CCN(S(=O)(=O)c3ccc(Cl)s3)CC2)cnn1-c1nn2cccc2c(=O)[nH]1 [Q-1842] | 150 nM | 1 nM | 
Cc1c(C(=O)N2CCC3(CC2)CC3C(=O)N2CCC2)cnn1-c1nc2c(c(=O)[nH]1)CCC2 (stereo not shown) [Q-1089] | 350 nM | 3 nM | 
Cc1c(C(=O)N2CCN(S(=O)(=O)c3cc(Cl)sc3Cl)CC2)cnn1-c1nn2cccc2c(=O)[nH]1 [Q-1858] | 260 nM | 1 nM | 
Cc1c(C(=O)N2CC(c3cccc(F)n3)C2)cnn1-c1nn2cccc2c(=O)[nH]1 [Q-1121] | 70 nM | 1 nM | 
Cc1c(C(=O)N2CCN(S(=O)(=O)c3ccccc3OC(F)(F)F)CC2)cnn1-c1nn2cccc2c(=O)[nH]1 [Q-1861] | 98 nM | 1 nM | 
Cc1c(C(=O)N2CCN(S(=O)(=O)c3cccc(C#N)c3)CC2)cnn1-c1nn2cccc2c(=O)[nH]1 [Q-1794] | 250 nM | 2 nM | 
Cc1c(C(=O)N2CCc3nc(-c4ccc(Cl)cc4)sc3C2)cnn1-c1nn2cccc2c(=O)[nH]1 [Q-1146] | 380 nM | 5 nM | 
Cc1c(C(=O)N2CCC(c3nc(-c4cccnc4)cs3)CC2)cnn1-c1nc2c(c(=O)[nH]1)CCC2 [Q-1084] | 13 nM | 2 nM | 
Cc1c(C(=O)N2C3CCC2CN(C2CCC2)C3)cnn1-c1nn2cccc2c(=O)[nH]1 [Q-1114] | 24 nM | 1 nM | 
C=C(C1CCN(C(=O)c2cnn(-c3nc4c(c(=O)[nH]3)CCC4)c2C)CC1)C(F)(F)F [Q-1096] | 18 nM | 1 nM | 
Cc1c(C(=O)N2CCC(n3ccnc3C(F)(F)F)CC2)cnn1-c1nn2cccc2c(=O)[nH]1 [Q-1229] | 100 nM | 2 nM | 
Cc1noc(C)c1S(=O)(=O)N1CCN(C(=O)c2cnn(-c3nn4cccc4c(=O)[nH]3)c2C)CC1 [Q-1848] | 210 nM | 1 nM | 
Cc1c(C(=O)N2CCC3(CC2)CC3C(=O)N2CCOCC2)cnn1-c1nc2c(c(=O)[nH]1)CCC2 (stereo not shown) [Q-1077] | 160 nM | 5 nM | 
Cc1c(C(=O)N2CCN(c3nc(-c4ccc(Cl)cc4)cs3)CC2)cnn1-c1nn2cccc2c(=O)[nH]1 [Q-1138] | 360 nM | 20 nM | 
Cc1c(C(=O)N2CCCN(C(C)C(F)(F)F)CC2)cnn1-c1nn2cccc2c(=O)[nH]1 (stereo not shown) [Q-1218] | 130 nM | 3 nM | 
Cc1c(C(=O)N2CCN(S(=O)(=O)c3cccs3)CC2)cnn1-c1nn2cccc2c(=O)[nH]1 [Q-1821] | 130 nM | 1 nM | 
Cc1c(C(=O)N2CC3CCCC(C2)C3C(F)(F)F)cnn1-c1nn2cccc2c(=O)[nH]1 (stereo not shown) [Q-1123] | 57 nM | 1 nM | 
Cc1c(C(=O)N2CCC(c3cccc(F)n3)CC2)cnn1-c1nn2cccc2c(=O)[nH]1 [Q-1117] | 20 nM | 1 nM | 
C=C(C1CCN(C(=O)c2cnn(-c3nn4cccc4c(=O)[nH]3)c2C)CC1)C(F)(F)F [Q-1095] | 27 nM | 1 nM | 
Cc1c(C(=O)N2CCCN(CCC(F)(F)F)CC2)cnn1-c1nn2cccc2c(=O)[nH]1 [Q-1183] | 110 nM | 4 nM | 
Cc1c(C(=O)N2CCN(c3nnc(-c4ccccc4Cl)o3)CC2)cnn1-c1nn2cccc2c(=O)[nH]1 [Q-1188] | 290 nM | 6 nM | 

Compound | IC50 [1] | IC50 [2] | IC50 [3]
Cc1c(C(=O)N2CCN(c3ncc(-c4cccc(F)c4)o3)CC2)cnn1-c1nn2cccc2c(=O)[nH]1 [Q-1157] | 490 nM | 4 nM | 
Cc1c(C(=O)N2CC(c3ccc(F)nc3)C2)cnn1-c1nn2cccc2c(=O)[nH]1 [Q-1144] | 70 nM | 1 nM | 
Cc1cc(C)c(S(=O)(=O)N2CCN(C(=O)c3cnn(-c4nn5cccc5c(=O)[nH]4)c3C)CC2)c(C)c1 [Q-1820] | 94 nM | 1 nM | 
Cc1c(C(=O)N2CCN(c3nc(-c4cccc(C(F)(F)F)c4)cs3)CC2)cnn1-c1nn2cccc2c(=O)[nH]1 [Q-1173] | 290 nM | 20 nM | 
Cc1c(C(=O)N2CCN(C3CC3C(F)(F)F)CC2)cnn1-c1nn2cccc2c(=O)[nH]1 (stereo not shown) [Q-1240] | 35 nM | 1 nM | 
Cc1c(C(=O)N2CCc3nc(-c4ccc(C(F)(F)F)cc4)sc3C2)cnn1-c1nn2cccc2c(=O)[nH]1 [Q-1148] | 540 nM | 10 nM | 
Cc1c(C(=O)N2CCC(c3cccnc3Cl)CC2)cnn1-c1nn2cccc2c(=O)[nH]1 [Q-1111] | 15 nM | 1 nM | 
O=C(c1cn(-c2nn3cccc3c(=O)[nH]2)nn1)N1CCC(C2CC2)CC1 [Q-1222] | 25 nM | 1 nM | 
O=C(c1cn(-c2nn3cccc3c(=O)[nH]2)nn1)N1CC2(C1)CC(F)(F)C2 [Q-1237] | 700 nM | 3 nM | 
Cc1c(C(=O)N2CCC(C(=O)CCC(F)(F)F)CC2)cnn1-c1nn2cccc2c(=O)[nH]1 [Q-1227] | 14 nM | 1 nM | 
Cc1c(C(=O)N2CCn3cccc3C2)cnn1-c1nn2cccc2c(=O)[nH]1 [Q-1925] | 170 nM | 1 nM | 
Cc1nn(-c2nn3cccc3c(=O)[nH]2)cc1C(=O)N1CC(N2CCC(F)(F)C2)C1 [Q-1243] | 51 nM | 20 nM | 
Cc1c(C(=O)N2CCC(c3nc(-c4ccccc4)co3)CC2)cnn1-c1nn2cccc2c(=O)[nH]1 [Q-1080] | 25 nM | 2 nM | 
Cc1c(C(=O)N2CCN(S(=O)(=O)c3ccc(F)cc3)CC2)cnn1-c1nn2cccc2c(=O)[nH]1 [Q-1807] | 110 nM | 1 nM | 
Cc1c(C(=O)N2CC3CC(C2)N3CC(F)(F)F)cnn1-c1nn2cccc2c(=O)[nH]1 [Q-1106] | 93 nM | 1 nM | 
Cc1c(C(=O)N2CCN(c3nnc(-c4cccc(Cl)c4)o3)CC2)cnn1-c1nn2cccc2c(=O)[nH]1 [Q-1154] | 350 nM | 5 nM | 
Cc1c(C(=O)N2CC(N3CCC(F)(F)C3)C2)cnn1-c1nc2[nH]ccc2c(=O)[nH]1 [Q-1254] | 870 nM | 100 nM | 
Cc1c(C(=O)N2CCN(c3nnc(C(F)(F)F)o3)CC2)cnn1-c1nn2cccc2c(=O)[nH]1 [Q-1145] | 190 nM | 3 nM | 
Cc1c(C(=O)N2C3CCC2CC(C(F)(F)F)C3)cnn1-c1nn2cccc2c(=O)[nH]1 (stereo not shown) [Q-1122] | 25 nM | 1 nM | 
Cc1c(C(=O)N2CC3CCC(C2)C3C(F)(F)F)cnn1-c1nn2cccc2c(=O)[nH]1 (stereo not shown) [Q-1130] | 57 nM | 1 nM | 
Cc1c(C(=O)N2CCC(n3cccc3C(F)(F)F)CC2)cnn1-c1nn2cccc2c(=O)[nH]1 [Q-1238] | 79 nM | 2 nM | 

Compound | IC50 [1] | IC50 [2] | IC50 [3]
Cc1c(C(=O)N2CCC3(CCCCC3=O)CC2)cnn1-c1nn2cccc2c(=O)[nH]1 [Q-1220] | 22 nM | 1 nM | 
Cc1nc(C)c(S(=O)(=O)N2CCN(C(=O)c3cnn(-c4nn5cccc5c(=O)[nH]4)c3C)CC2)s1 [Q-1805] | 130 nM | 1 nM | 
Cc1c(C(=O)N2CCC(C(CCF)C(F)(F)F)CC2)cnn1-c1nn2cccc2c(=O)[nH]1 (stereo not shown) [Q-1141] | 19 nM | 1 nM | 
Cc1c(C(=O)N2CCN(S(=O)(=O)c3ccccc3F)CC2)cnn1-c1nn2cccc2c(=O)[nH]1 [Q-1799] | 100 nM | 1 nM | 
Cc1c(C(=O)N2CCN(c3ncc(-c4ccc(C(F)(F)F)cc4)o3)CC2)cnn1-c1nn2cccc2c(=O)[nH]1 [Q-1175] | 450 nM | 20 nM | 
Cc1c(C(=O)N2CCN(c3ncc(-c4ccnc(F)c4)s3)CC2)cnn1-c1nn2cccc2c(=O)[nH]1 [Q-1231] | 62 nM | 3 nM | 
Cc1c(C(=O)N2CCC(C3(C#N)CCC3)CC2)cnn1-c1nc2c(c(=O)[nH]1)CCC2 [Q-1087] | 29 nM | 2 nM | 
CCCC(=O)C1CCN(C(=O)c2cnn(-c3nn4cccc4c(=O)[nH]3)c2C)CC1 [Q-1207] | 29 nM | 1 nM | 
Cc1c(C(=O)N2CCN(c3nc(-c4ccnc(Cl)c4)cs3)CC2)cnn1-c1nn2cccc2c(=O)[nH]1 [Q-1163] | 68 nM | 2 nM | 
Cc1c(C(=O)N2CCc3nc(-c4ccc(F)cc4)sc3C2)cnn1-c1nn2cccc2c(=O)[nH]1 [Q-1160] | 110 nM | 3 nM | 
Cc1c(C(=O)N2CCC(C(F)(F)F)CC2)c(C(N)=O)nn1-c1nc2c(c(=O)[nH]1)CCC2 [Q-1884, 5-methyl-1-(4-oxo-4,5,6,7-tetrahydro-3H-cyclopenta[d]pyrimidin-2-yl)-4-(4-(trifluoromethyl)piperidine-1-carbonyl)-1H-pyrazole-3-carboxamide] | 84 nM | 1 nM | 
Cc1c(C(=O)N2CCN(S(C)(=O)=O)CC2)cnn1-c1nn2cccc2c(=O)[nH]1 [Q-1539] | 780 nM | 4 nM | 
Cc1c(C(=O)N2CCN(C3CCC3)CC2)nnn1-c1nn2cccc2c(=O)[nH]1 [Q-1191] | 20 nM | 1 nM | 
Cc1c(C(=O)N2CCC(c3c[nH]c4ccccc34)CC2)cnn1-c1nn2c(F)ccc2c(=O)[nH]1 [Q-0624] |  | 2 nM | 32 nM
O=C(O)c1ccnc(-c2nc3ccsc3c(=O)[nH]2)c1 [Q-0547] |  | 2300 nM | 10000 nM
O=C(c1ccnc(-c2nc3ccsc3c(=O)[nH]2)c1)N1CCC(c2c[nH]c3ccccc23)CC1 [Q-0555] |  | 20 nM | 700 nM
Cc1c(C(=O)N2CCC(c3cn(C)c4ccccc34)CC2)cnn1-c1nc2c(c(=O)[nH]1)CCC2 [Q-0592] |  | 20 nM | 76 nM
Cc1c(C(=O)N2CC3COCC(C3)C2)cnn1-c1nc2ccsc2c(=O)[nH]1 [Q-0602] |  | 20 nM | 1200 nM
Cc1c(C(=O)N2CCc3ccccc3C2)cnn1-c1nc2sccc2c(=O)[nH]1 [Q-0382] |  | 3 nM | 100 nM
Cc1cc(=O)[nH]c(-n2ncc(C(=O)N3CCc4ccccc4[C@H]3C)c2C)n1 (single isomer, unassigned) [Q-0340] |  | 7 nM | 1100 nM
